Where two headings read alike, the source gives them in different places.
Legend:
Format in all cases: cell-based
STING = STING (Homo sapiens, UniProt Q86WV6); assay: IFN-β secretion from THP1 by STING activation (hIFNβ ELISA)
Method in brief: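 THP1 cells (2×10^6 cells/ml) exposed 24 h at 37° C, 5% CO2 to 8-point, 3-fold compound dilutions, 0.2% DMSO final, top dose set by solubility. Secreted IFN-β in supernatant measured by human IFNβ ELISA; EC50 from curve fitting.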

STING HAQ variant = target: T1, STING HAQ variant (Homo sapiens, UniProt Q86WV6, G230A/R293Q/R71H); assay: SEAP reporter assay in HEK-Blue ISG KO-STING cells transfected with STING HAQ variant (Method 2); parameters: key: ratio of compound SEAP signal to 0.5% DMSO; conditions: 0.0625 ng STING vector (HAQ variant), compound 5 uM, 24 h, SEAP signal vs 0.5% DMSO
T1 construct: host or cells: HEK-Blue ISG KO-STING cells (Invivogen, hkb-kostg)
Source text: (§1) Activation of STING can be determined using a SEAP reporter assay in HEK-Blue™ ISG KO-STING cells (Invivogen, cat #hkb-kostg) transfected with plasmids expressing STING variants (WT & HAQ) (referred to WO2017/175147A1). STING variants (WT & HAQ) vector were constructed based on STING-232H vector (Origene, RC208418). GFP vector (VT2069) was bought from Youbio. The detailed protocol as follows: HEK-Blue™ ISG KO-STING cells were harvest and seeding into 96 well plate and the final cell number was 0.8×10^5 cells/well. Transfections were prepared using Lipofectamine 2000 (Invitrogen, Cat #11668-027) following the manufacturer's instructions (Lipo2000/DNA=1/10), 20 ul of transfection suspension containing 1 ng (WT variant) or 0.0625 ng (HAQ variant) STING vector was added to cell culture plate and incubated at 37° C., 5% CO2 for 24 hours. After 24 hours incubation, compounds were added at proper concentration, the final DMSO concentration was 0.5%. After 24 h incubation, the supernatant was collected to detect SEAP signal using Great EscAPe SEAP chemiluminescence KIT (Clontech, cat #631738) and cells were collected to detect cell viability using CellTiter-Glo Luminescent Cell Viability Assay (Promega, cat #G7573) following the manufacturer's instructions. The data were described by the ratio of the stimulating signal of compounds to 0.5% DMSO.

STING WT variant = target: T2, STING WT variant (Homo sapiens, UniProt Q86WV6); assay: SEAP reporter assay in HEK-Blue ISG KO-STING cells transfected with STING WT variant (Method 2); parameters: key: ratio of compound SEAP signal to 0.5% DMSO; conditions: 1 ng STING vector (WT variant), compound 2.5 uM, 24 h, SEAP signal vs 0.5% DMSO
T2 construct: host or cells: HEK-Blue ISG KO-STING cells (Invivogen, hkb-kostg)
Source text: as §1

[1] = THP1 cells; 24 h incubation; IFN-β in supernatant; top dose set according to solubility; read-out: hIFNβ ELISA (EC50)

T1 sequence (Q86WV6 whole entry R71H/G230A/R293Q): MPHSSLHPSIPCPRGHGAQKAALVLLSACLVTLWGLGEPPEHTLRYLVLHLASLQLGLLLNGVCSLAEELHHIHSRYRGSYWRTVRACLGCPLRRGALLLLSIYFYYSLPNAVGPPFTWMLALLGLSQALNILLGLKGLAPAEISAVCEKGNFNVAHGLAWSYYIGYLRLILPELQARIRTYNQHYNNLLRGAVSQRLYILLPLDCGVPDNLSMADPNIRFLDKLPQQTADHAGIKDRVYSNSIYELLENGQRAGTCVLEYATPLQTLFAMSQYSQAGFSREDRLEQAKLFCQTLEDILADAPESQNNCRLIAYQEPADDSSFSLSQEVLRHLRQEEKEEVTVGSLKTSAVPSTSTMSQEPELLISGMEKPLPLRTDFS
Chain of STING (Q86WV6 whole entry): as the sequence (Q86WV6 whole entry R71H/G230A/R293Q) above, with H71R, A230G, Q293R counted along it

EC50 (STING; [1]) [µM]	Fold change related to DMSO control HAQ (STING HAQ variant)	Fold change related to DMSO control WT (STING WT variant)	hIFNβ ELISA (EC50, μM) (STING; THP1 cells; 24 h incubation; IFN-β in supernatant; top dose set according to solubility)	Compound	EC50 (STING; read-out: hIFNβ ELISA (EC50); THP1 cells; 24 h incubation; IFN-β in supernatant; top dose set according to solubility) [µM]
4.7	13.94	7.82	–	CCn1nc(C)cc1C(=O)Nc1nc2cc(C(N)=O)cc(OCCCNC(=O)CN3CCC(O)CC3)c2n1CCC[C@H]1COc2cc(C(N)=O)cc3nc(NC(=O)c4cc(C)nn4CC)n1c23 [Example 40, (S)-3-(3-(5-carbamoyl-2-(1-ethyl-3-methyl-1H-pyrazole-5-carboxamido)-7-(3-(2-(4-hydroxypiperidin-1-yl)acetamido)propoxy)-1H-benzo[d]imidazol-1-yl)propyl)-2-(1-ethyl-3-methyl-1H-pyrazole-5-carboxamido)-3,4-dihydro-5-oxa-1,2a-diazaacenaphthylene-7-carboxamide]	–
–	7.94	5.70	inactive	CCn1nc(C)cc1C(=O)Nc1nc2cc(C#N)cc(OCCCNC(=O)CN3CCOCC3)c2n1CCC[C@H]1COc2cc(C#N)cc3nc(NC(=O)c4cc(C)nn4CC)n1c23 [Example 48, (S)—N-(5-cyano-1-(3-(7-cyano-2-(1-ethyl-3-methyl-1H-pyrazole-5-carboxamido)-3,4-dihydro-5-oxa-1,2a-diazaacenaphthylen-3-yl)propyl)-7-(3-(2-morpholinoacetamido)propoxy)-1H-benzo[d]imidazol-2-yl)-1-ethyl-3-methyl-1H-pyrazole-5-carboxamide]	–
> 6.9	12.84	10.68	–	CCn1nc(C)cc1C(=O)Nc1nc2cc(C#N)cc(OCCCNC(=O)CN3CCOCC3)c2n1CCC[C@H]1COc2cc(C(N)=O)cc3nc(NC(=O)c4cc(C)nn4CC)n1c23 [Example 46, (S)-3-(3-(5-cyano-2-(1-ethyl-3-methyl-1H-pyrazole-5-carboxamido)-7-(3-(2-morpholinoacetamido)propoxy)-1H-benzo[d]imidazol-1-yl)propyl)-2-(1-ethyl-3-methyl-1H-pyrazole-5-carboxamido)-3,4-dihydro-5-oxa-1,2a-diazaacenaphthylene-7-carboxamide]	–
1.2	26.34	11.71	–	CCn1nc(C)cc1C(=O)Nc1nc2cc(C(N)=O)cc(OCCCNC(=O)CN3CCOCC3)c2n1CCC[C@H]1COc2cc(C(N)=O)cc3nc(NC(=O)c4c(Cl)c(C)nn4CC)n1c23 [Example 55, (S)-3-(3-(5-carbamoyl-2-(1-ethyl-3-methyl-1H-pyrazole-5-carboxamido)-7-(3-(2-morpholinoacetamido)propoxy)-1H-benzo[d]imidazol-1-yl)propyl)-2-(4-chloro-1-ethyl-3-methyl-1H-pyrazole-5-carboxamido)-3,4-dihydro-5-oxa-1,2a-diazaacenaphthylene-7-carboxamide]	–
8.8	19.38	7.15	–	CCn1nc(C)cc1C(=O)Nc1nc2cc(C(N)=O)cc(OCCCNC(=O)CN3CC(COC)C3)c2n1CCC[C@H]1COc2cc(C(N)=O)cc3nc(NC(=O)c4cc(C)nn4CC)n1c23 [Example 41, (S)-3-(3-(5-Carbamoyl-2-(1-ethyl-3-methyl-1H-pyrazole-5-carboxamido)-7-(3-(2-(3-(methoxymethyl)azetidin-1-yl)acetamido)propoxy)-1H-benzo[d]imidazol-1-yl)propyl)-2-(1-ethyl-3-methyl-1H-pyrazole-5-carboxamido)-3,4-dihydro-5-oxa-1,2a-diazaacenaphthylene-7-carboxamide]	–
17.3	10.61	6.76	–	CCn1nc(C)cc1C(=O)Nc1nc2cc(C(N)=O)cc(OCCCN=C(N(C)C)N(C)C)c2n1CCC[C@H]1COc2cc(C(N)=O)cc3nc(NC(=O)c4cc(C)nn4CC)n1c23 [Example 56, (S)-3-(3-(7-(3-((bis(dimethylamino)methylene)amino)propoxy)-5-carbamoyl-2-(1-ethyl-3-methyl-1H-pyrazole-5-carboxamido)-1H-benzo[d]imidazol-1-yl)propyl)-2-(1-ethyl-3-methyl-1H-pyrazole-5-carboxamido)-3,4-dihydro-5-oxa-1,2a-diazaacenaphthylene-7-carboxamide]	–

Further lines, the molecule ahead of its results:

Compound	EC50 (STING; [1]) [µM]	Fold change related to DMSO control HAQ (STING HAQ variant)	Fold change related to DMSO control WT (STING WT variant)	hIFNβ ELISA (EC50, μM) (STING; THP1 cells; 24 h incubation; IFN-β in supernatant; top dose set according to solubility)	EC50 (STING; read-out: hIFNβ ELISA (EC50); THP1 cells; 24 h incubation; IFN-β in supernatant; top dose set according to solubility) [µM]
CCn1nc(C)cc1C(=O)Nc1nc2cc(C(N)=O)cc(OCCCN)c2n1CCC[C@H]1COc2cc(C(N)=O)cc3nc(NC(=O)c4c(F)c(C)nn4CC)n1c23.Cl [Example 51, (S)-3-(3-(7-(3-aminopropoxy)-5-carbamoyl-2-(1-ethyl-3-methyl-1H-pyrazole-5-carboxamido)-1H-benzo[d]imidazol-1-yl)propyl)-2-(1-ethyl-4-fluoro-3-methyl-1H-pyrazole-5-carboxamido)-3,4-dihydro-5-oxa-1,2a-diazaacenaphthylene-7-carboxamide hydrochloride]	–	11.97	9.66	–	> 50
CCn1nc(C)cc1C(=O)Nc1nc2cc(C(N)=O)cc(OCCCOC)c2n1CCC[C@H]1COc2cc(C(N)=O)cc3nc(NC(=O)c4c(F)c(C)nn4CC)n1c23 [Example 50, (S)-3-(3-(5-carbamoyl-2-(1-ethyl-3-methyl-1H-pyrazole-5-carboxamido)-7-(3-methoxypropoxy)-1H-benzo[d]imidazol-1-yl)propyl)-2-(1-ethyl-4-fluoro-3-methyl-1H-pyrazole-5-carboxamido)-3,4-dihydro-5-oxa-1,2a-diazaacenaphthylene-7-carboxamide]	1.6	32.38	8.92	–	–
CCn1nc(C)cc1C(=O)Nc1nc2cc(C(N)=O)cc(OCCCO)c2n1CCC[C@H]1CN(C)c2cc(C(N)=O)cc3nc(NC(=O)c4cc(C)nn4CC)n1c23 [Example 57, (S)-4-(3-(5-carbamoyl-2-(1-ethyl-3-methyl-1H-pyrazole-5-carboxamido)-7-(3-hydroxypropoxy)-1H-benzo[d]imidazol-1-yl)propyl)-2-(1-ethyl-3-methyl-1H-pyrazole-5-carboxamido)-6-methyl-5,6-dihydro-4H-imidazo[1,5,4-de]quinoxaline-8-carboxamide]	2.6	23.35	11.24	–	–
CCn1nc(C)cc1C(=O)Nc1nc2cc(C(N)=O)cc(OCCCNC(=O)CN(C)C)c2n1CCC[C@H]1COc2cc(C(N)=O)cc3nc(NC(=O)c4c(Cl)c(C)nn4CC)n1c23 [Example 54, (S)-3-(3-(5-carbamoyl-7-(3-(2-(dimethylamino)acetamido)propoxy)-2-(1-ethyl-3-methyl-1H-pyrazole-5-carboxamido)-1H-benzo[d]imidazol-1-yl)propyl)-2-(4-chloro-1-ethyl-3-methyl-1H-pyrazole-5-carboxamido)-3,4-dihydro-5-oxa-1,2a-diazaacenaphthylene-7-carboxamide]	5.2	19.74	13.02	–	–
CCn1nc(C)cc1C(=O)Nc1nc2cc(C(N)=O)cc(OCCCNS(=O)(=O)C3CCNCC3)c2n1CCC[C@H]1COc2cc(C(N)=O)cc3nc(NC(=O)c4cc(C)nn4CC)n1c23 [Example 45, (S)-3-(3-(5-carbamoyl-2-(1-ethyl-3-methyl-1H-pyrazole-5-carboxamido)-7-(3-(piperidine-4-sulfonamido)propoxy)-1H-benzo[d]imidazol-1-yl)propyl)-2-(1-ethyl-3-methyl-1H-pyrazole-5-carboxamido)-3,4-dihydro-5-oxa-1,2a-diazaacenaphthylene-7-carboxamide]	> 50	21.63	4.43	–	–
CCn1nc(C)cc1C(=O)Nc1nc2cc(C(N)=O)cc(OCCCNC(=O)CN3CC[C@@H](OC)C3)c2n1CCC[C@H]1COc2cc(C(N)=O)cc3nc(NC(=O)c4cc(C)nn4CC)n1c23 [Example 39, (S)-3-(3-(5-carbamoyl-2-(1-ethyl-3-methyl-1H-pyrazole-5-carboxamido)-7-(3-(2-((R)-3-methoxypyrrolidin-1-yl)acetamido)propoxy)-1H-benzo[d]imidazol-1-yl)propyl)-2-(1-ethyl-3-methyl-1H-pyrazole-5-carboxamido)-3,4-dihydro-5-oxa-1,2a-diazaacenaphthylene-7-carboxamide]	2.2	16.45	11.39	–	–
